We go through ten molecules from ChEMBL document CHEMBL1201862, “PubChem BioAssay data set” (2004).

Holding throughout (experiment): DTP human tumour cell line panel, 48 h
Test [1] deals with A549.
Test [2] deals with BT-549.
The subject of test [3] is HCT-116.
Test [4] relates to HCT-15.
For test [5], the system named is HL-60.
Test [6] has as its system HOP-62.
The test system of test [7] is HOP-92.
Test [8] has as its system HT-29.
Test [9] deals with LOX IMVI.
The subject of test [10] is NCI-H226.
For test [11], the system named is PC-3.
For test [12], the system named is SF-268.
For test [13], the system named is SK-MEL-28.
Test [14] deals with SK-MEL-2.
The test system of test [15] is SK-MEL-5.
Test [16] concerns SN12C.
In test [17] the test system is SNB-19.
The subject of test [18] is SNB-75.
For test [19], the system named is SW-620.
The subject of test [20] is U-251.

Structures are written as SMILES.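 How tested: cells in 96-well plates exposed to compound for 48 hours at five concentrations. GI50 = concentration required for 50% inhibition of growth.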 Calls of active or inactive are those of the source. Cut-off read from the data, not from the text of the source: active = GI50 up to about 1.1 µM and inactive = higher.

`O=C(O)C1C(=O)Oc2c(cccc2[N+](=O)[O-])C1O` (configuration not stated): the GI50 is > 100 µM (inactive) in test [1]; > 100 µM (inactive) in [2]; > 100 µM (inactive) in [3]; above 100 µM in test [4]; > 100 µM (inactive) in test [5]; > 100 µM (inactive) in test [6]. In addition, the GI50 in test [7], in [8], in test [9], in test [10], in test [11] and in test [12] was > 100 µM (inactive) in each case. Besides, the GI50 in test [13], in test [14], in test [15], in test [16], in [17] and in [18] was > 100 µM (inactive) in each case. For the same molecule, the GI50 in test [19] and in [20] was > 100 µM (inactive) in each case.

Take `COc1ccc(/C=C/C(=O)Oc2cc(O)cc(O)c2)cc1`: the GI50 in test [1] was 34.8 µM (inactive); in test [2], 49.8 µM (inactive); in test [3], 14.3 µM (inactive); in [4], 16.9 µM; in [5], 22 µM (inactive); in [6] it was 17.3 µM (inactive). For the same molecule, the GI50 was 93.1 µM (inactive) in test [7]; 29.4 µM (inactive) in test [8]; 20.1 µM (inactive) in [9]; > 100 µM (inactive) in test [10]; 43.6 µM (inactive) in [11]; 26.2 µM (inactive) in test [12]. Besides, the GI50 is > 100 µM (inactive) in test [13]; > 100 µM (inactive) in test [14]; 52.8 µM (inactive) in test [15]; 36.4 µM (inactive) in test [16]; > 100 µM (inactive) in test [17]; 38.1 µM (inactive) in test [18]. Moreover, the GI50 in test [19] is 41.1 µM (inactive); in test [20], 24.6 µM (inactive).

In the case of `N#Cc1c2c(c(Nc3ccc(F)cc3)n3c1nc1ccccc13)CCC2`, the GI50 in test [1] was 5.93 µM (inactive); in [2], 7.19 µM (inactive); in test [3], 1.76 µM (inactive); in test [4], 3.99 µM; in test [5], 3.96 µM (inactive); in [6], 3.03 µM (inactive). Also, the GI50 was 6.37 µM (inactive) in test [7]; 1.87 µM (inactive) in test [8]; 2.13 µM (inactive) in test [9]; 6.81 µM (inactive) in test [10]; 5.14 µM (inactive) in test [11]; 3.55 µM (inactive) in test [12]. The GI50 in test [13] is 9.27 µM (inactive); in test [14], 14.3 µM (inactive); in test [15], 3.54 µM (inactive); in test [16], 2.1 µM (inactive); in test [17], 8.61 µM (inactive); in test [18], 6.18 µM (inactive). The GI50 in test [19] is 2.43 µM (inactive); in [20], 2.84 µM (inactive).

`CC(=O)OC1CC[C@@]2(C)C(=CC[C@@H]3[C@@H]2CC[C@]2(C)Nc4c(cnn4-c4ccc(F)cc4)C[C@@H]32)C1` (some centres not stated): the GI50 in [1] was 24.3 µM (inactive); in test [2] it was 17.3 µM (inactive); in [3], 7.4 µM (inactive); in test [4], 20 µM; in test [5], 2.93 µM (inactive); in test [6], 5.5 µM (inactive). Also, the GI50 in [7] is 53.5 µM (inactive); in [8], 13.2 µM (inactive); in [9], 7.85 µM (inactive); in [10] it was 59.7 µM (inactive); in test [11], 23.1 µM (inactive); in [12], 39.4 µM (inactive). Further, the GI50 is 15.1 µM (inactive) in test [13]; 17.9 µM (inactive) in test [14]; 25.9 µM (inactive) in [15]; > 100 µM (inactive) in test [16]; 30.9 µM (inactive) in test [17]; 16.8 µM (inactive) in test [18]. Moreover, the values for the GI50 in test [19] and in [20] were 22.9 µM (inactive) and 7.43 µM (inactive), respectively.

Regarding `N#Cc1c(=O)c2cc([N+](=O)[O-])ccc2n2c1[nH]c1ccccc12`, the GI50 in [1] was 7.57 µM (inactive); in test [2], 9.08 µM (inactive); in test [3] it was 3.37 µM (inactive); in test [4] it was 7.64 µM; in test [5] it was 4.81 µM (inactive); in [6], 9.55 µM (inactive). Also, the GI50 was 2.62 µM (inactive) in [7]; 8.09 µM (inactive) in test [8]; 5.24 µM (inactive) in test [9]; 4.58 µM (inactive) in test [10]; 4 µM (inactive) in test [11]; 8.67 µM (inactive) in test [12]. The GI50 in [13] is 4.48 µM (inactive); in test [14] it was 5.25 µM (inactive); in test [15] it was 13.3 µM (inactive); in [16], 9.93 µM (inactive); in [17], 5.41 µM (inactive); in test [18] it was 10.7 µM (inactive). In addition, the figures for the GI50 in test [19] and in [20] were 8.71 µM (inactive) and 7.71 µM (inactive), respectively.

Consider `N#CC1CNC(N)NC1N` (configuration not stated), for which the GI50 in test [1] is > 100 µM (inactive); in test [2] it was > 100 µM (inactive); in test [3] it was > 100 µM (inactive); in test [4] it was above 100 µM; in [5], > 100 µM (inactive); in [6] it was > 100 µM (inactive). The GI50 in test [7], in test [8], in test [9], in [10], in [11] and in test [12] was > 100 µM (inactive) in each case. Further, the GI50 in test [13], in test [14], in [15], in [16], in test [17] and in test [18] was > 100 µM (inactive) each time. The GI50 in test [19] and in test [20] was > 100 µM (inactive) each time.

Turning to `O=C1/C(=C/c2ccc(O)c(O)c2)CC/C1=C\c1ccc(O)c(O)c1`, the GI50 in test [1] is 15.7 µM (inactive); in [2] it was 5.04 µM (inactive); in test [3] it was 3.58 µM (inactive); in test [4] it was 7.16 µM; in [5] it was 3.39 µM (inactive); in test [6], 7.11 µM (inactive). The GI50 in [7] is 4.17 µM (inactive); in [8], 18.5 µM (inactive); in test [9], 6.67 µM (inactive); in test [10], 7.46 µM (inactive); in test [11] it was 11.8 µM (inactive); in test [12], 5.52 µM (inactive). Besides, the GI50 in test [13] is 14.2 µM (inactive); in test [14] it was 22.7 µM (inactive); in test [15], 4.03 µM (inactive); in test [16], 7.29 µM (inactive); in test [17], 7.11 µM (inactive); in test [18], 6.7 µM (inactive). The GI50 in test [19] was 14 µM (inactive); in test [20], 3.97 µM (inactive).

With `CCOP(=O)(O)C1C(CO)OC(n2ccc(=O)[nH]c2=O)C1O` (configuration not stated), the GI50 in test [1] was > 100 µM (inactive); in test [2] it was > 100 µM (inactive); in [3] it was > 100 µM (inactive); in test [4], above 100 µM; in test [5], > 100 µM (inactive); in test [6], > 100 µM (inactive). Further, the GI50 in [7], in [8], in test [9], in test [10], in [11] and in [12] was > 100 µM (inactive) throughout. Further, the GI50 in test [13], in test [14], in test [15], in [16], in [17] and in test [18] was > 100 µM (inactive) in each case. The GI50 in test [19] is > 100 µM (inactive).

On to `CCC(=O)NI1OC(=O)c2ccccc21`, for which the GI50 in test [1] is > 100 µM (inactive); in test [2], > 100 µM (inactive); in [3] it was > 100 µM (inactive); in [4], 43.5 µM; in test [5], 47.3 µM (inactive); in [6], > 100 µM (inactive). The GI50 in test [7], in [8], in test [9], in test [10], in test [11] and in test [12] was > 100 µM (inactive) throughout. Besides, the GI50 in test [13], in test [14], in test [15], in test [16], in test [18] and in [19] was > 100 µM (inactive) each time. For the same molecule, in test [20], the GI50 was > 100 µM (inactive).

Turning to `Cc1ccc2c(c1)C=CC(C#N)N2C(=O)Oc1ccccc1` (configuration not stated), the GI50 in test [1] was 29.5 µM (inactive); in test [2], 22.8 µM (inactive); in test [3], 37.9 µM (inactive); in test [4], 21.1 µM; in test [5] it was 18.9 µM (inactive); in test [7], 30.2 µM (inactive). The GI50 in test [8] was 18.7 µM (inactive); in test [9], 20.6 µM (inactive); in test [10], 31 µM (inactive); in test [11], 26.3 µM (inactive); in [12] it was 29.9 µM (inactive); in test [13] it was 77.8 µM (inactive). The GI50 in test [14] was 22.7 µM (inactive); in [15] it was 24.3 µM (inactive); in test [16], 35.8 µM (inactive); in test [17], 31.8 µM (inactive); in test [18] it was 40.6 µM (inactive); in test [19] it was 30.5 µM (inactive). In [20], the GI50 is 23.7 µM (inactive).

As usually defined, the GI50 is the concentration at which growth is held to half of that of the control.
